From PMC10564737, “Structure-based design of a phosphotyrosine-masked covalent ligand targeting the E3 ligase SOCS2” (Nature Communications, 2023)
“And” between values parts separate entries of the source, which are not always exact repeats. Equal entries are not always repeated.

Target: T1, HiBiT-SOCS2 fusion in HeLa cells (Homo sapiens, UniProt O14508)
T1 construct: encoding SOCS2 (32–198) in pBiT3.1-N expression vector; expressed in transfected cells; host or cells: HeLa
Assay: Split-NanoLuc CETSA, live-cell mode
Type: cell-based
Parameters: Produrg CETSA screening, raw signal: reference not given here
Conditions: for Produrg CETSA screening, raw signal: 50uM 20hrs
Experimental: One of the challenges with small-molecule binders displaying on-target activity with recombinant proteins, is to translate their utility to a cellular context. […] One of the advantages of CETSA is that target engagement can be monitored without the need for the development of a cell-permeable tracer molecule.
We utilized CETSA in a live-cell mode to evaluate the efficacy and rank the different prodrugs. We treated live HeLa cells with 50 μM compound (prodrugs) for 20 h and monitored Tagg shift as a proxy for the combo of prodrug permeability and unmasking (Fig. 4d). […] The observation could be because the POM group unmasking requires only esterase unlike the reliance of compounds 21–23 on esterase and phosphoramidase for unmasking an aryloxy phosphoramidate group.
N-terminal HiBiT-SOCS2 fusion was generated by encoding SOCS2 (32–198) in pBiT3.1-N expression vector (Promega). The transfection and target engagement assay were performed by modifying a NanoLuc target engagement protocol (Promega) with some small modifications. Briefly, HiBiT-SOCS2 fusion construct was transfected into HeLa cells using FuGENE HD (Promega) according to the manufacturer’s protocol. HiBiT-SOCS2 fusion construct was diluted into Transfection Carrier DNA (Promega) at a mass ratio of 1:100 or 1:10 for permeabilised and live-cell CETSA respectively. FuGENE HD was added at a ratio of 1:3 (μg DNA: μL FuGENE HD). 1 part (vol) of FuGENE HD complexes thus formed were combined with 20 parts (vol) of HeLa cells suspended at a density of 2 × 10^5 cells/mL, followed by incubation in a humidified, 37 °C + 5% CO2 incubator. After 20 h of incubation HeLa cells were detached and resuspended at a density of 2.5 × 10^5 cells/mL in Opti-MEM media without serum or phenol red but supplemented with protease inhibitor cocktail (Roche). Compounds stocks were added to cell suspension to maintain a final DMSO concentration of 1%. For the permeabilised assay format, 96-well PCR plates (Thermo) were pre-treated with digitonin to have a final well concentration of 50 μg/ml. 50 μl Opti-MEM cell suspension was then aliquoted to each well of the 96-well plate. The plates are then covered with microporous tape sheet (Qiagen) prior to incubation in a humidified, 37 °C + 5% CO2 incubator. Post-incubation we heat the PCR plates in 16-point temperature (split across two runs) curve spanning degrees 40-72 °C temperature span (CFX96 Touch Real-Time PCR Detection System, BioRad). The thermal cycler block was allowed to rise to the designated temperatures prior to placement of the PCR plates into the heating block and heat treatment for 3 min. After incubating the plates at room temperature for over 3 min, 50 μl of the Nano-Glo HiBiT Lytic mix (Promega) was added to each well. Samples were mixed by pipetting and placing the plate on an orbital shaker (600 rpm) for 5 min. 20 μl of the samples (in triplicates) were transferred to a AlphaPlate-384 plate (Perkin Elmer). Luminescence was recorded with GloMax Discover Microplate Reader (Promega). To generate apparent Tagg curves, the data is first converted to percent stabilized by relating the observed luminescence to the luminescence of the lowest temperature (40 °C) for that given sample. Data are then fitted to obtain apparent Tagg values using the Boltzmann Sigmoid equation using Graphpad Prism 9.

T1 sequence (O14508 32-198): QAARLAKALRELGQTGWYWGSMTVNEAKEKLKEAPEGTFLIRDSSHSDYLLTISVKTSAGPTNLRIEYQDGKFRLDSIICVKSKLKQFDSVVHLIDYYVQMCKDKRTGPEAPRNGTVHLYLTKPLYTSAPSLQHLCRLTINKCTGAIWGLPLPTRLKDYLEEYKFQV
T1 sequence (Q15370 whole entry, further chain, the tested form may be a part): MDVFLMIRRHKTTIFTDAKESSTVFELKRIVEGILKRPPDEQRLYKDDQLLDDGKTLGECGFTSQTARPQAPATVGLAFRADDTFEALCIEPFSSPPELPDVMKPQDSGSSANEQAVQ
T1 sequence (Q15369 whole entry, further chain, the tested form may be a part): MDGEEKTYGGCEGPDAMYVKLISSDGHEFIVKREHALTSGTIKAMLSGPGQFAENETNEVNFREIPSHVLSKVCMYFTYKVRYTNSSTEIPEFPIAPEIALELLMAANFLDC

Structure (SMILES): CC(C)(C)C(=O)OCOP(=O)(OCOC(=O)C(C)(C)C)Oc1ccc(C[C@H](NC(=O)Cc2ccc(F)cc2)C(=O)NCc2cccc(NC(=O)CCl)c2)cc1 [MN714]
- Produrg CETSA screening, raw signal (n=1, temperature point 4 of 16, temperature not given): 54032 and 80376 and 105532
- Produrg CETSA screening, raw signal (n=1, temperature point 5 of 16, temperature not given): 90582 and 99338 and 174703
- Produrg CETSA screening, raw signal (n=1, temperature point 6 of 16, temperature not given): 139751 and 167289 and 205811
- Produrg CETSA screening, raw signal (n=1, temperature point 7 of 16, temperature not given): 195985 and 234426 and 281536
- Produrg CETSA screening, raw signal (n=1, temperature point 8 of 16, temperature not given): 244882 and 229067 and 241218
- Produrg CETSA screening, raw signal (n=1, temperature point 9 of 16, temperature not given): 256289 and 277913 and 306068
- Produrg CETSA screening, raw signal (n=1, temperature point 10 of 16, temperature not given): 320763 and 321677 and 363535
- Produrg CETSA screening, raw signal (n=1, temperature point 11 of 16, temperature not given): 372242 and 395029 and 425781
- Produrg CETSA screening, raw signal (n=1, temperature point 12 of 16, temperature not given): 423872 and 436050 and 431053
- Produrg CETSA screening, raw signal (n=1, temperature point 13 of 16, temperature not given): 366601 and 377426 and 420904
- Produrg CETSA screening, raw signal (n=1, temperature point 14 of 16, temperature not given): 362714 and 367767 and 404526
- Produrg CETSA screening, raw signal (n=1, temperature point 15 of 16, temperature not given): 419874 and 426204 and 438598
- Produrg CETSA screening, raw signal (n=1, temperature point 16 of 16, temperature not given): 418575 and 457050 and 469972
- Produrg CETSA screening, raw signal (n=2, temperature point 1 of 16, temperature not given): 80745 and 156547 and 107330
- Produrg CETSA screening, raw signal (n=2, temperature point 2 of 16, temperature not given): 108259 and 123901 and 132020
- Produrg CETSA screening, raw signal (n=2, temperature point 3 of 16, temperature not given): 72847 and 107017 and 131297
- Produrg CETSA screening, raw signal (n=2, temperature point 4 of 16, temperature not given): 98808 and 124869 and 145900
- Produrg CETSA screening, raw signal (n=2, temperature point 5 of 16, temperature not given): 73033 and 127162 and 126167
- Produrg CETSA screening, raw signal (n=2, temperature point 6 of 16, temperature not given): 163432 and 190209 and 191740
- Produrg CETSA screening, raw signal (n=2, temperature point 7 of 16, temperature not given): 242162 and 237309 and 241895
- Produrg CETSA screening, raw signal (n=2, temperature point 8 of 16, temperature not given): 244528 and 287537 and 296136
- Produrg CETSA screening, raw signal (n=2, temperature point 9 of 16, temperature not given): 280328 and 320314 and 333974
- Produrg CETSA screening, raw signal (n=2, temperature point 10 of 16, temperature not given): 308215 and 329369 and 371393
- Produrg CETSA screening, raw signal (n=2, temperature point 11 of 16, temperature not given): 342961 and 395565 and 371949
- Produrg CETSA screening, raw signal (n=2, temperature point 12 of 16, temperature not given): 424106 and 411160 and 460047
- Produrg CETSA screening, raw signal (n=2, temperature point 13 of 16, temperature not given): 397001 and 430594 and 470735
- Produrg CETSA screening, raw signal (n=2, temperature point 14 of 16, temperature not given): 424646 and 453700 and 455391
- Produrg CETSA screening, raw signal (n=2, temperature point 15 of 16, temperature not given): 402201 and 445060 and 429166
- Produrg CETSA screening, raw signal (n=2, temperature point 16 of 16, temperature not given): 423530 and 445088 and 469114
- Produrg CETSA screening, raw signal (n=3, Temp, 0C 62.3): 15991
- Produrg CETSA screening, raw signal (n=3, Temp, 0C 66.1): 13409 and 15862 and 18690
- Produrg CETSA screening, raw signal (n=3, Temp, 0C 69.3): 10941 and 16787 and 17374
- Produrg CETSA screening, raw signal (n=3, Temp, 0C 71.1): 8072 and 11559 and 15104
- Produrg CETSA screening, raw signal (n=3, Temp, 0C 72): 10040 and 12206 and 15596
- EC50 (2 hours EC50, MN714 dose response CETSA, Mean): 3.77 µM
- EC50 (2 hours EC50, individual replicates n1-n4, MN714 dose response CETSA, single replicates): 2.69 µM and 3.55 µM and 5.05 µM
- EC50 (8 hours EC50, MN714 dose response CETSA, Mean): 2.52 µM
- EC50 (8 hours EC50, individual replicates n1-n4, MN714 dose response CETSA, single replicates): 1.93 µM and 3.11 µM and 0.902 µM and 4.13 µM
- EC50 (EC50, live-cell CETSA, 2 h of treatment): 3.8 µM
- EC50 (EC50, live-cell CETSA, 8 h of treatment): 2.5 µM
- Tagg shift, live-cell CETSA (HeLa cells, 50 μM, 20 h): consistent superior SOCS2 engagement
- ΔT (Prodrug screen CETSA, live HeLa cells, 50 μM, 20 h, Mean n = 3): 4.89 oC
- ΔT, individual replicates n1-n3 (Prodrug screen CETSA, single replicates): 4.83 oC and 5.25 oC and 4.59 oC
